From ChEMBL document CHEMBL1201862, “PubChem BioAssay data set” (2004)
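Values below derive from 48-hour exposures of cells grown in 96-well plates, with endpoints linearly interpolated between the two concentrations bracketing the appropriate inhibition level. GI50: concentration for 50% inhibition of growth.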 Activity calls are given as the source filed them. Rule as the data show it: active = GI50 up to about 1.1 µM and inactive = higher.

Assays:
Assay in all cases: inhibition of tumour cell growth, NCI panel, 48 h
[1] = test system: A498
[2] = test system: CAKI-1
[3] = test system: LOX IMVI
[4] = test system: M14
[5] = test system: MDA-MB-231
[6] = test system: MDA-N
[7] = test system: MOLT-4
[8] = test system: Malme-3M
[9] = test system: OVCAR-4
[10] = test system: PC-3
[11] = test system: SF-268
[12] = test system: SF-295
[13] = test system: SK-MEL-28
[14] = test system: SK-MEL-5
[15] = test system: T47D
[16] = test system: UACC-257
[17] = test system: UACC-62
[18] = test system: 786-0
[19] = test system: HCC 2998
[20] = test system: NCI-H226

Row | SMILES | GI50 [1] | GI50 [2] | GI50 [3] | GI50 [4] | GI50 [5] | GI50 [6] | GI50 [7] | GI50 [8] | GI50 [9] | GI50 [10] | GI50 [11] | GI50 [12] | GI50 [13] | GI50 [14] | GI50 [15] | GI50 [16] | GI50 [17] | GI50 [18] | GI50 [19] | GI50 [20]
1 | Cn1c(-c2ccccc2)c2cc3nc4ccccc4nc3cc2c1-c1ccccc1 | 19.6 µM (inactive) | 43.3 µM (inactive) | 14 µM (inactive) | 6.21 µM (inactive) | 24.2 µM (inactive) | 5.87 µM (inactive) | 21 µM (inactive) | 30.1 µM (inactive) | 30 µM (inactive) | 14.7 µM (inactive) | 19 µM (inactive) | 14.4 µM (inactive) | 34.9 µM (inactive) | 1.67 µM (inactive) | 24.5 µM (inactive) | 56.2 µM (inactive) | 11.7 µM (inactive) |  |  | 
2 | Cc1nn(C(=O)c2ccccc2O)c2c1C(c1ccc(O)cc1)SC(=N)N2 (stereo unspecified) | 3.06 µM (inactive) | > 2.32 µM (inactive) | 1.36 µM (inactive) | > 2.86 µM (inactive) | > 3.18 µM (inactive) | 1.67 µM (inactive) | 1.33 µM (inactive) | 0.601 µM (active) | > 2.12 µM (inactive) | > 3.03 µM (inactive) | 3.45 µM (inactive) | 1.26 µM (inactive) | > 10 µM (inactive) | > 3.08 µM (inactive) | 1.23 µM (inactive) | 0.805 µM (active) | 0.929 µM (active) | > 2.56 µM (inactive) | > 8.91 µM (inactive) | 
3 | OCCOCCN1CCN(CCCN2c3ccccc3Sc3ccc(C(F)(F)F)cc32)CC1 | 10.5 µM (inactive) | 15.3 µM (inactive) | 3.97 µM (inactive) | 2.65 µM (inactive) | 11.1 µM (inactive) | 13 µM (inactive) | 13.1 µM (inactive) |  | 15.7 µM (inactive) | 15.6 µM (inactive) | 16.5 µM (inactive) | 12.9 µM (inactive) | 3.27 µM (inactive) | 3.22 µM (inactive) | 0.955 µM (active) | 5.15 µM (inactive) | 6.65 µM (inactive) | 16.6 µM (inactive) | 2.78 µM (inactive) | 16.4 µM (inactive)
4 | O=C(N/S(=N/S(=O)(=O)c1ccc(Br)cc1)C(Cl)(Cl)Cl)c1ccccc1 (stereo unspecified) | > 100 µM (inactive) |  | > 100 µM (inactive) | > 100 µM (inactive) | > 100 µM (inactive) | > 100 µM (inactive) | > 100 µM (inactive) | > 100 µM (inactive) | > 100 µM (inactive) | > 100 µM (inactive) | > 100 µM (inactive) | > 100 µM (inactive) | > 100 µM (inactive) | > 100 µM (inactive) | > 100 µM (inactive) | > 100 µM (inactive) | > 100 µM (inactive) | > 100 µM (inactive) |  | > 100 µM (inactive)
5 | O=c1c(-c2ccccc2)nnc2n(Cc3ccccc3)c3ccccc3n12 | > 100 µM (inactive) | > 100 µM (inactive) | > 100 µM (inactive) | > 100 µM (inactive) | > 100 µM (inactive) | > 100 µM (inactive) | > 100 µM (inactive) | > 100 µM (inactive) | > 100 µM (inactive) |  | > 100 µM (inactive) | > 100 µM (inactive) | > 100 µM (inactive) | > 100 µM (inactive) | > 100 µM (inactive) | > 100 µM (inactive) |  | > 100 µM (inactive) | > 100 µM (inactive) | 22.5 µM (inactive)
6 | O=C(O)c1c[nH]c2c(Sc3ccccc3)nccc2c1=O | > 100 µM (inactive) | > 100 µM (inactive) | 44.2 µM (inactive) | > 100 µM (inactive) | > 100 µM (inactive) | > 100 µM (inactive) | > 100 µM (inactive) |  | > 100 µM (inactive) | > 100 µM (inactive) | > 100 µM (inactive) | > 100 µM (inactive) | > 100 µM (inactive) | > 100 µM (inactive) | > 100 µM (inactive) | > 100 µM (inactive) | > 100 µM (inactive) | > 100 µM (inactive) |  | > 100 µM (inactive)
7 | SC1=NC2=C(CSC/C2=C\c2ccc(Cl)cc2)C(c2ccc(Cl)cc2)N1 (stereo unspecified) |  | 42.3 µM (inactive) | 27 µM (inactive) |  | 35.2 µM (inactive) | 33.5 µM (inactive) | 31.1 µM (inactive) | 26.4 µM (inactive) | 42.5 µM (inactive) | 31.3 µM (inactive) | 75.7 µM (inactive) | 42.2 µM (inactive) | > 100 µM (inactive) | 19.1 µM (inactive) | 28.6 µM (inactive) | 32 µM (inactive) | 49 µM (inactive) | 26.5 µM (inactive) | 25.4 µM (inactive) | 
